In US20040142888A1, “Modulators of RabGGT and methods of use thereof” (priority 2002, published 2004):
Read-outs that look alike come from different tables or passages of the source.

Assays:
[1] = tested on: HCT-116 human colon tumor cells; assay: Compound-induced apoptosis in HCT-116 human colon tumor cells (microscopy for morphological markers); format: cell-based
Protocol: HCT-116 human colon tumor cells obtained from the American Type Culture Collection (ATCC) were grown in McCoy's 5A culture medium with 10% heat inactivated FBS, 1× penicillin/streptomycin, and 25 mM HEPES, in an incubator maintained at 37° C. with CO2 at 6-7% and humidity at 95%. Cells were treated with compounds using a dose range from 0.04 μM to 100 μM. After 48 hours they were examined by microscopy for signs of cell rounding, vaccuolation, and nuclear condensation. These are morphological markers associated with apoptosis, and are consistent with results obtained by performing an assay for nucleosomal DNA, or a TdT-mediated dUTP nick end labeling (TUNEL) assay.
The concentrations cited are the minimal concentration required to induce these morphological changes in 50% of the treated cells.

rat RabGGT = molecular target: T1, rat RabGGT (Rattus norvegicus, UniProt Q08602+Q08603); assay: RabGGT filter binding assay: transfer of (3H)geranylgeranyl from 3H-GGPP to recombinant Rab3A; format: biochemical; details: for IC90/IC50: RabGGT inhibition
T1 construct: purchased Calbiochem 345855; host or cells: Sf9/baculovirus
T1 sequence (Q08602 1-567): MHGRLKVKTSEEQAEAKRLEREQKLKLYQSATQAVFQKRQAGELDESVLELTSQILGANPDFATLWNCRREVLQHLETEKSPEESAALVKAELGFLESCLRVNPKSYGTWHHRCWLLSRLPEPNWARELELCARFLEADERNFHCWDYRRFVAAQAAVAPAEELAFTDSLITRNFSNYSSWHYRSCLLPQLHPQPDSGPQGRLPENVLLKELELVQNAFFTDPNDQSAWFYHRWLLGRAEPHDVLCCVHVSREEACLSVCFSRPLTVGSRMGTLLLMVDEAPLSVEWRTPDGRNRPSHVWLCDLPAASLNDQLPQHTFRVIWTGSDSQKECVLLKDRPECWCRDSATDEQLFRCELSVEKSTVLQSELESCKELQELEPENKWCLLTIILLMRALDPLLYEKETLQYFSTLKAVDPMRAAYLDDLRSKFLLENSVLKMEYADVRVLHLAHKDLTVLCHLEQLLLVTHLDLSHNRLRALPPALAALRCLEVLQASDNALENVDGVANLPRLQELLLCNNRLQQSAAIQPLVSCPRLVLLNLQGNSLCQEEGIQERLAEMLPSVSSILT
T1 sequence (Q08603 1-331): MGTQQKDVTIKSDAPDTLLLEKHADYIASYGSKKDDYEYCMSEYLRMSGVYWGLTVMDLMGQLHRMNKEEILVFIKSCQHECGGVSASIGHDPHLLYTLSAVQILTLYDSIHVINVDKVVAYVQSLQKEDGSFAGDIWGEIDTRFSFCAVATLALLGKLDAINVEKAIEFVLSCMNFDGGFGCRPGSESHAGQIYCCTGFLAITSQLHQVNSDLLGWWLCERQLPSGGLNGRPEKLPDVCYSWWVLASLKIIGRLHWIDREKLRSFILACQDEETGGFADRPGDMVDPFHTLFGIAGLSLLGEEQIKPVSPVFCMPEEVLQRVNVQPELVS
Excerpt: The effect of compounds 7A through 7T on RabGGT activity was quantified using a filter binding assay that measures the transfer of (3H) geranylgeranyl groups (GG) from all-trans-(3H)geranylgeranyl pyrophosphate (3H-GGPP) to recombinant Rab3A protein (Shen & Seabra, 1996, JBC, 271 :3692; Armstrong et al., 1996, Methods in Enzymology 257:30). Modifications to published protocols are noted explicitly below.
Recombinant rat RabGGT, expressed using the Sf9/baculovirus system, was purchased from Calbiochem (cat. no. 345855). Recombinant unprenylated human Rab3A was obtained from Panvera.(cat. no. P2173). Human REβ-1, expressed in Sf9 cells, was obtained from Calbiochem (cat. no. 554000). Tritium labeled geranylgeranyl pyrophosphate was purchased from Amersham Pharmacia Biotech (15 Ci/mmol). Unlabeled GGPP was purchased from Sigma (cat. no. G-6025).
The reaction buffer contained 50 mM HEPES pH7.4, 5 mM MgCl2, 1 mM DTT, 1 mM Nβ-40. Solutions of RabGGT, Rab3A, REP-1, and GGPP were prepared in this reaction buffer. Final protein concentrations in the reaction mixture were modified from the published protocols, with the standard reaction mixture containing 2 μM Rab3A, 0.2 μM REP-1, 5 μM unlabeled GGPP, 0.5 μM labeled GGPP, and 10-50 nM RabGGT in a total volume of 20 μl. The specific activity of (3H)GGPP used in the assay was 3000 dpm/pmol.
Compounds were prepared as 50 mM stocks in DMSO and diluted to give an appropriate concentration for the assay as a 20% DMSO stock. 2 μl of the diluted compound stock was added to a 20 μl reaction to give a final DMSO concentration of 2% in the assay.
The order of addition of reagents was altered from the published protocols. Reaction mixtures were prepared by sequentially adding Rab3A and REP-1 proteins to the reaction buffer, followed by compound and RabGGT enzyme to a volume of 18 μl. Reactions were initiated by the addition of 2 μl of a solution that contained unlabeled and labeled GGPP. After a 30 minute incubation at 37° C., 1 ml of stop solution (1 volume of concentrated HCl acid with 9 volumes of ethanol) was added and mixed. The solution was then incubated at room temperature for 1 hour to completely precipitate proteins.
The precipitate was collected by vacuum filtration using a vacuum filtration manifold (Millipore model 1225) onto 25 mm GF/A filters (Whatman) that were prewetted with ethanol. The tubes were rinsed twice with 1 ml ethanol which was also poured over the filters. Each filter was subsequently washed three times with 2 mls of ethanol per wash, dried under vacuum, and then put in scintillation vials. Four milliliters of scintillation fluid was added and the radioactivity was quantified on a scintillation counter. Several types of blank reactions were conducted including withholding the enzyme, the substrate, or the accessory protein REP-1, or replacing the compound solution with a 20% DMSO solution. For the substrate titration experiment, the equimolar amounts of Rab3A and REP-1 were mixed and preincubated for 30 min at room temperature before addition of the enzyme.
The data was analyzed by non-linear regression analysis methods using the program PRIZM (GraphPad Software, Inc.). Inhibition constants were obtained by analyzing the data using the one site competition equation provided by the software. FIG. 7 presents a typical data series obtained for compound 7B using these methods.

[2] = HCT-116, 48 h, HCT116 cells, 48 hours, minimal concentration inducing apoptotic morphological changes in 50% of treated cells, read-out: 50% APOPTOTIC
[3] = HCT-116, minimum concentration required to achieve apoptosis of 50% of the HCT116 cells (Table 7), read-out: HCT116 50% apoptosis
[4] = HCT-116, minimum concentration required to achieve apoptosis of 50% of the HCT116 cells (Table 8), read-out: HCT116 50% apoptosis
[5] = recombinant rat RabGGT, Rab3A, REP-1, 30 minute at 37° C.

| Compound | EC50 [1, 2] [µM] | EC50 [1, 3] [µM] | EC50 [1, 4] [µM] | IC90/IC50 (rat RabGGT) | IC50 (rat RabGGT; Table 7) [µM] | IC50 (rat RabGGT; [5]) [µM] | IC90 (rat RabGGT; [5]) [µM] | EC50 ([1]; HCT-116, 48 h, HCT-116 cells, 48 hours, read-out: minimum effective concentration (apoptosis in 50% of cells)) [µM] |
| --- | --- | --- | --- | --- | --- | --- | --- | --- |
| COc1ccc(S(=O)(=O)N2Cc3cc(C#N)ccc3N(Cc3cnc[nH]3)C[C@H]2Cc2ccccc2)cc1 [Compound 7A] | 3.7 | 3.3 | 3.3 | 8 | 0.036 | 0.036 | 0.295 |  |
| N#Cc1ccc2c(c1)CN(S(=O)(=O)N1CCCCC1)[C@H](Cc1ccccc1)CN2Cc1cnc[nH]1 [Compound 7B] | 0.37 | 0.37 | 0.37 | 9 | 0.021 | 0.021 | 0.199 |  |
| CCCS(=O)(=O)N1Cc2cc(C#N)ccc2N(Cc2cnc[nH]2)C[C@H]1Cc1ccccc1 [Compound 7H] | 0.37 | 0.37 | 0.37 | 5 | 0.021 | 0.021 | 0.115 |  |
| COc1ccc(S(=O)(=O)N2Cc3cc(C#N)ccc3N(Cc3cncn3C)C[C@H]2Cc2ccccc2)cc1 [Compound 7I] | 0.04 | 0.04 | 0.04 | 6 | 0.016 | 0.016 | 0.093 | 0.04 |
| Cn1cncc1CN1C[C@@H](Cc2ccccc2)N(S(=O)(=O)c2cccs2)Cc2cc(C#N)ccc21 [Compound 7J] | 2.5 | 2.5 | 2.5 | 5 | 0.012 | 0.012 | 0.058 |  |
